Laboratory results as given in patent publication US6433175B1, “Pyrroloindoles, pyridoindoles and azepinoindoles as 5-ht2c agonists” (Vernalis Research Limited, priority 1998, dated 2002).
Where a name gives a salt, the structure may show the parent alone. Read-outs that look alike come from different tables or passages of the source.

Key:
human 5-HT2C [1] = biological target: T1, human 5-HT2C (Homo sapiens, UniProt P28335); assay: Binding to 5-HT2C receptor, [3H]-5-HT, CHO cell line; design: expressed in transfected cells; host or cells: CHO cell line
T1 sequence (P28335 33-458): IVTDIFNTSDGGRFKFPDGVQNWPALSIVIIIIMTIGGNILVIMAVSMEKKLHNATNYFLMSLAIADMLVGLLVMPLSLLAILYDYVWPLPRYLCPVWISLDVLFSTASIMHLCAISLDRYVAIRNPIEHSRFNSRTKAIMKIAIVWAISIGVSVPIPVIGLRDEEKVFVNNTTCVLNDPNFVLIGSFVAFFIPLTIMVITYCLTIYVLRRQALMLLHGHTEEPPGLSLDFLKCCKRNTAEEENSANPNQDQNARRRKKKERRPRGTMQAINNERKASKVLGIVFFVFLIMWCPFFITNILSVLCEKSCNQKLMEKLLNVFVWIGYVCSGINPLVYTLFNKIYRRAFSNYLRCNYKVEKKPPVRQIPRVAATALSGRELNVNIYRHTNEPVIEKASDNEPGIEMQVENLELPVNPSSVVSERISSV
Procedure: (§1) The binding of compounds of formula (I) to serotonin receptors was determined in vitro by standard methods. The preparations were investigated in accordance with the assays given hereinafter.
Method (a): For the binding to the 5-HT2C receptor the 5-HT2C receptors were radiolabeled with [^3H]-5-HT. The affinity of the compounds for 5-HT2C receptors in a CHO cell line was determined according to the procedure of D. Hoyer, G. Engel and H. O. Kalkman, European J. Pharmacol., 1985, 118, 13-23.

human 5-HT2B receptors = biological target: T2, human 5-HT2B receptors (Homo sapiens, UniProt P41595); assay: Binding to 5-HT2B receptor, [3H]-5-HT, CHO cell line
T2 construct: expressed in transfected cells; host or cells: CHO cell line
T2 sequence (P41595 whole entry): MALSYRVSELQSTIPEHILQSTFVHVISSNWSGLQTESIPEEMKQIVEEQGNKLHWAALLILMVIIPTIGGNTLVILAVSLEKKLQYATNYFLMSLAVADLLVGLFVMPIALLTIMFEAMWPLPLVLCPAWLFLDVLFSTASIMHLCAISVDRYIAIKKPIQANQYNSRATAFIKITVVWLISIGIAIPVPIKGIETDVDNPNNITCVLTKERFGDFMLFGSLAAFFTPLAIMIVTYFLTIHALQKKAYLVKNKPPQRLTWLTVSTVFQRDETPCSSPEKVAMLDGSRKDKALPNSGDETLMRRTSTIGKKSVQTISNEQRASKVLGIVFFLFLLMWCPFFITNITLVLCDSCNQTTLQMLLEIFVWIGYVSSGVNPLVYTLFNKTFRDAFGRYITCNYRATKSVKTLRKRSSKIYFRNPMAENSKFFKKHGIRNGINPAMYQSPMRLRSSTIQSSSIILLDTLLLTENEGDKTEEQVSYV
Procedure: as §1
Method (b): For the binding to the 5-HT2B receptor the 5-HT2B receptors were radiolabeled with [^3H]-5-HT. The affinity of the compounds for human 5-HT2B receptors in a CHO cell line was determined according to the procedure of K. Schmuck, C. Ullmer, P. Engels and H. Lubbert, FEBS Lett., 1994, 342, 85-90.

5-HT2A receptor [2] = biological target: T3, 5-HT2A receptor (Homo sapiens, UniProt P28223); assay: Functional activity, FLIPR calcium assay, CHO cells expressing human 5-HT2A; assay type: cell-based; design: expressed in transfected cells; host or cells: CHO cells; conditions: for EC50: CHO cells; for h5-HT2A Relative Efficacy: maximum fluorescent signal relative to 10 μM 5-HT (100%)
T3 sequence (P28223 whole entry): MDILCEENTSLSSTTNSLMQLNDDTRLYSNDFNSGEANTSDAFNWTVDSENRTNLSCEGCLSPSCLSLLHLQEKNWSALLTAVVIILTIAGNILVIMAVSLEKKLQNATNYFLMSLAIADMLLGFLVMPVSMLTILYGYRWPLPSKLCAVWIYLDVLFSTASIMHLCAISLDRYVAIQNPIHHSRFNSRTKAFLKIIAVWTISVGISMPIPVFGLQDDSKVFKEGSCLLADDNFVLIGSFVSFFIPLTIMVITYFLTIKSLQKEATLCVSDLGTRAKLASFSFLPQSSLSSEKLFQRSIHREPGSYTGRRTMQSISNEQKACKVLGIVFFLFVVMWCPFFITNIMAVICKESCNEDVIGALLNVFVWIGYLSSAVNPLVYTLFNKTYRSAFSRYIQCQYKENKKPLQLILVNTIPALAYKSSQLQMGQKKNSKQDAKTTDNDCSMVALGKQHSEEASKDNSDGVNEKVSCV
Procedure: (§2) The functional activity of compounds of formula (I) was assayed using a Fluorimetric Imaging Plate reader (FLIPR). CHO cells expressing the human 5-HT2C or human 5-HT2A receptors were counted and plated into standard 96 well microtitre plates on the day before testing to give a confluent monolayer. The cells were then dye loaded with the calcium sensitive dye, Fluo-3-AM. Unincorporated dye was removed using an automated cell washer to leave a total volume of 100 μL/well of assay buffer (Hanks balanced salt solution containing 20 mM Hepes and 2.5 mM probenecid). The drug (dissolved in 50 μL of the assay buffer) was added at a rate of 70 μL/sec to each well of the FLIPR 96 well plate during fluorescence measurements. The measurements were taken at 1 sec intervals and the maximum fluorescent signal was measured (approx 10-15 secs after drug addition) and compared with the response produced by 10 μM 5-HT (defined as 100%) to which it was expressed as a percentage response (relative efficacy). Dose response curves were constructed using Graphpad Prism (Graph Software Inc.).

5-HT2A receptor [3] = biological target: T3, 5-HT2A receptor; assay: Binding to 5-HT2A receptor, [125I]-DOI, CHO cell line; design: expressed in transfected cells; host or cells: CHO cell line
Procedure: as §1
Method (c): For the binding to the 5-HT2A receptor the 5-HT2A receptors were radiolabeled with [^125I]-DOI. The affinity of the compounds for 5-HT2A receptors in a CHO cell line was determined according to the procedure of D. J. McKenna and S. J. Peroutka, J. Neurosci., 1989, 9, 3482-90.

human 5-HT2C [4] = biological target: T1, human 5-HT2C; assay: Functional activity, FLIPR calcium assay, CHO cells expressing human 5-HT2C; assay type: cell-based; design: expressed in transfected cells; host or cells: CHO cells; conditions: for EC50: CHO cells; for h5-HT2c Relative Efficacy: maximum fluorescent signal relative to 10 μM 5-HT (100%)
Procedure: as §2

rats [5] = assay: In vivo efficacy: 5-HT2C syndrome in rats; design: species or system rat; conditions: 20 mg/kg s.c.
Procedure: The in vivo efficacy of 5-HT2C agonists was assessed by the ability of the compounds to induce three specific behaviours (5HT2C Syndrome) in rats.
The 5-HT2c syndrome is a rapid screening method to assess the in vivo efficacy of 5-HT2c agonists through their ability to induce three specific behaviours in rats. The animals were dosed with either a positive control (mCPP), test compound or vehicle, either sub-cutaneously or p.o. The animals were observed on an open bench, typically 30, 60 and 180 minutes after dosing and the degree of syndrome was assessed over a two minute period on a scale of 0-3 depending on the presence and severity of splayed limbs, hunched posture and retro-pulsion, the three specific behaviours which constitute the syndrome. Data were analysed using Kruskal-Wallis Analysis of Variance followed with appropriate post-hoc tests. All statistical analysis were conducted using Excel version 7.0 (Microsoft Corp.) and Statistica version 5.0 (Statsoft, Inc.).

rats [6] = conditions: cited from earlier work
[7] = cited from earlier work
[8] = [3H]-5-HT, CHO cell line, read-out: Ki (2C)
[9] = [3H]-5-HT, human receptor, CHO cell line, read-out: Ki (2B)
[10] = [125I]-DOI, CHO cell line, read-out: Ki (2A)

Structure (SMILES)	melting point	EC50 (5-HT2A receptor [2]; FLIPR, read-out: h5-HT2A EC50)	h5-HT2A Relative Efficacy (5-HT2A receptor [2])	EC50 (human 5-HT2C [4]; h5-HT2c EC50, FLIPR)	h5-HT2c Relative Efficacy (human 5-HT2C [4])	other results
CC(N)Cc1c2n(c3ccc(OCc4ccccc4)cc13)CCC2 (racemic) (as salt: fumarate)	146 to 147 °C (dec.)	–	–	–	–	–
CC(N)Cc1c2n(c3cccc(Cl)c13)CCC2 (racemic) (as salt: fumarate)	207 to 208 °C	–	–	–	–	–
COc1ccc2c(c1)c(CC(C)N)c1n2CCC1 (racemic) (as salt: fumarate) [Example 3, (RS)-1-(7-Methoxy-2,3-dihydro-1H-pyrrolo[1,2-a]indol-9-yl)-2-propylamine fumarate]	194 to 196 °C	–	–	–	–	–
Cc1ccc2c(c1)c(CC(C)N)c1n2CCC1 (racemic) (as salt: fumarate) [Example 6, (RS)-1-(7-Methyl-2,3-dihydro-1H-pyrrolo[1,2-a]indol-9-yl)-2-propylamine fumarate]	138 to 139 °C	–	–	–	–	–
CSc1ccc2c(c1)c(CC(C)N)c1n2CCC1 (racemic) (as salt: fumarate) [Example 11, (RS)-1-(7-Methylthio-2,3-dihydro-1H-pyrrolo[1,2-a]indol-9-yl)-2-propylamine fumarate]	204 to 206 °C (dec.)	–	–	–	–	–
COc1ccc2c(c1)c(CC(C)NCC1CC1)c1n2CCC1 (racemic) (as salt: hydrochloride)	149 to 151 °C	–	–	–	–	–
COc1ccc2c(c1)c(CC(C)NCC1CCCCC1)c1n2CCC1 (racemic) (as salt: hydrochloride)	210 to 213 °C	–	–	–	–	–
COc1ccc2c(c1)c(CC(C)NCC(C)(C)C)c1n2CCC1 (racemic) (as salt: hydrochloride)	226 to 228 °C	–	–	–	–	–
COc1ccc2c(c1)c(CC(C)NCCC(C)C)c1n2CCC1 (racemic) (as salt: hydrochloride)	118 to 121 °C	–	–	–	–	–
CC(N)Cc1c2n(c3ccc(Cl)cc13)CCC2 (racemic) (as salt: hydrochloride) [Example 1, (RS)-1-(7-Chloro-2,3-dihydro-1H-pyrrolo[1,2-a]indol-9-yl)-2-propylamine hydrochloride]	272 to 273 °C	–	–	–	–	–
CC(N)Cc1c2n(c3cc(F)c(F)cc13)CCC2 (racemic) (as salt: hydrochloride) [Example 2, (RS)-1-(6,7-Difluoro-2,3-dihydro-1H-pyrrolo[1,2-a]indol-9-yl)-2-propylamine hydrochloride]	264 to 266 °C	–	–	–	–	–
CC(N)Cc1c2n(c3ccc(Cl)cc13)CCC2 (racemic) [Example 1, (RS)-1-(7-Chloro-2,3-dihydro-1H-pyrrolo[1,2-a]indol-9-yl)-2-propylamine hydrochloride]	–	3240 nM	33%	96 nM	68%	Ki (human 5-HT2C [1]; [8]): 110 nM; Ki (human 5-HT2B receptors; [9]): 229 nM; Ki (5-HT2A receptor [3]; [10]): 457 nM
CC(N)Cc1c2n(c3cc(F)c(F)cc13)CCC2 (racemic) [Example 2, (RS)-1-(6,7-Difluoro-2,3-dihydro-1H-pyrrolo[1,2-a]indol-9-yl)-2-propylamine hydrochloride]	–	–	12%	–	38%	Ki (human 5-HT2C [1]): 97 nM; Ki (human 5-HT2B receptors): 102 nM; EC50 (5-HT2A receptor [2]; h5-HT2A EC50, FLIPR): > 1000 nM; Ki (5-HT2A receptor [3]): 257 nM; EC50 (human 5-HT2C [4]; FLIPR, read-out: h5-HT2c EC50): 147 nM
COc1ccc2c(c1)c(CC(C)N)c1n2CCC1 (racemic) [Example 3, (RS)-1-(7-Methoxy-2,3-dihydro-1H-pyrrolo[1,2-a]indol-9-yl)-2-propylamine fumarate]	–	636 nM	22%	32 nM	63%	time for which significant pharmacological efficacy is maintained (5-HT2C syndrome) (rats [5]): at least 180 minutes; Ki (human 5-HT2C [1]; [8]): 118 nM; Ki (human 5-HT2B receptors; [9]): 220 nM; Ki (5-HT2A receptor [3]; [10]): 151 nM
CC(N)Cc1c2n(c3ccc(Br)cc13)CCC2 (racemic) [Example 5, (RS)-1-(7-Bromo-2,3-dihydro-1H-pyrrolo[1,2-a]indol-9-yl)-2-propylamine fumarate]	–	4020 nM	33%	94 nM	69%	Ki (human 5-HT2C [1]; [8]): 81 nM; Ki (human 5-HT2B receptors; [9]): 122 nM; Ki (5-HT2A receptor [3]; [10]): 448 nM
Cc1ccc2c(c1)c(CC(C)N)c1n2CCC1 (racemic) [Example 6, (RS)-1-(7-Methyl-2,3-dihydro-1H-pyrrolo[1,2-a]indol-9-yl)-2-propylamine fumarate]	–	> 10000 nM	–	348 nM	56%	–
CC(N)Cc1c2n(c3cc4c(cc13)OCO4)CCC2 (racemic) [Example 7, (RS)-1-[6,7-(Methylenedioxy)-2,3-dihydro-1H-pyrrolo[1,2-a]indol-9-yl]-2-propylamine fumarate]	–	2620 nM	37%	227 nM	59%	–
CSc1ccc2c(c1)c(CC(C)N)c1n2CCC1 (racemic) [Example 11, (RS)-1-(7-Methylthio-2,3-dihydro-1H-pyrrolo[1,2-a]indol-9-yl)-2-propylamine fumarate]	–	> 10000 nM	–	8 nM	80%	Ki (human 5-HT2C [1]; [8]): 84 nM; Ki (human 5-HT2B receptors; [9]): 115 nM; Ki (5-HT2A receptor [3]; [10]): 316 nM
COc1ccc2c(c1)c(CC(C)N)c1n2CCC1 (single isomer, unassigned; enantiomer 1) [Example 8]	–	921 nM	36%	33 nM	58%	–
COc1ccc2c(c1)c(CC(C)N)c1n2CCC1 (single isomer, unassigned; enantiomer 2) [Example 9, Enantiomer 2 of 1-(7-Methoxy-2,3-dihydro-1H-pyrrolo[1,2-a]indol-9-yl)-2-propylamine fumarate]	–	792 nM	40%	7 nM	81%	–
Clc1cccc(N2CCNCC2)c1 [mCPP, m-chlorophenylpiperazine]	–	–	–	–	–	food intake in rats (rats [6]): reduce food intake; appetite and body weight of obese subjects ([7]; obese male and female subjects, subchronic treatment for 14 days): decreased the appetite and body weight; food intake in female volunteers ([7]; single dose, female volunteers): decreased food intake
